What was measured:
Assay type in all cases: in vivo
Parameters in all cases: key: 0 is no effect; 10 is complete control
rice (Oryza sativa) = assay: Test B flood test
Procedure, shortened: (§1)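 Each value is a visual injury score relative to controls, with 10 meaning complete control and 0 no effect. Evaluation took place twelve to sixteen days after the 2-leaf-stage plants were treated and kept in the greenhouse.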

[1] = test system: smallflower flatsedge (Cyperus difformis); assay: Test B flood test
Procedure, shortened: as §1

[2] = test system: bamyardgrass (Echinochloa crus-galli); assay: Test B flood test
Procedure, shortened: as §1

[3] = test system: duck salad (Heteranthera limosa); assay: Test B flood test
Procedure, shortened: as §1

[4] = test system: cocklebur (Xanthium strumarium); assay: Test B pre-/postemergence; details: for Plant response rating, Cocklebur: Postemergence; for Cocklebur plant response rating: Preemergence
Procedure, shortened: (§2)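 Response scores run from 0, meaning no effect, to 10, meaning complete control, assigned by eye relative to controls twelve to sixteen days after spraying. Treatment was both preemergence on planted seed and postemergence on plants at the 1- to 4-leaf stage.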

corn (Zea mays) = assay: Test B pre-/postemergence; details: for Corn plant response rating: Preemergence
Procedure, shortened: as §2

[5] = test system: broadleaf signalgrass (Brachiaria decumbens); assay: Test B pre-/postemergence; details: for B. signalgrass plant response rating: Preemergence
Procedure, shortened: as §2

[6] = test system: momingglory (Ipomoea hederacea); assay: Test B pre-/postemergence
Procedure, shortened: as §2

rape (Brassica napus) = assay: Test B pre-/postemergence
Procedure, shortened: as §2

[7] = test system: wheat (Triticum aestivum); assay: Test B pre-/postemergence
Procedure, shortened: as §2

[8] = test system: giant foxtail (Setaria faberii); assay: Test B pre-/postemergence
Procedure, shortened: as §2

soybean (Glycine max) = assay: Test B pre-/postemergence
Procedure, shortened: as §2

wild oat (Avena fatua) = assay: Test B pre-/postemergence
Procedure, shortened: as §2

[9] = test system: blackgrass (Alopecurus myosuroides); assay: Test B pre-/postemergence; details: for Blackgrass plant response rating: Preemergence
Procedure, shortened: as §2

[10] = test system: bedstraw (Galium aparine); assay: Test B pre-/postemergence; details: for Bedstraw plant response rating: Preemergence
Procedure, shortened: as §2

[11] = test system: pigweed (Amaranthus retroflexus); assay: Test B pre-/postemergence
Procedure, shortened: as §2

[12] = test system: crabgrass (Digitaria sanguinalis); assay: Test B pre-/postemergence; details: for Crabgrass plant response rating: Preemergence
Procedure, shortened: as §2

[13] = test system: velvetleaf (Abutilon theophrasti); assay: Test B pre-/postemergence
Procedure, shortened: as §2

[14] = test system: sugar beet (Beta vulgaris); assay: Test B pre-/postemergence
Procedure, shortened: as §2

[15] = test system: purple nutsedge (Cyperus rotundus); assay: Test B pre-/postemergence
Procedure, shortened: as §2

[16] = Rate 62 g/ha, Postemergence (flood test)
[17] = Rate 125 g/ha, Postemergence section (flood test species)
[18] = Rate 250 g/ha, Postemergence (flood test species)
[19] = Rate 125 g/ha, Postemergence, flood test
[20] = Rate 250 g/ha, Postemergence (so in the source)

Q: What does the source list for Cc1cnc(-c2ccc(Cl)c(Cl)c2)nc1Cc1cccc(C#N)c1 [Compound 38]?
A: Plant response rating, Rice (rice (Oryza sativa); [16]): 0; Rice plant response rating (rice (Oryza sativa); [17]): 0; Plant response rating, Rice (rice (Oryza sativa); [18]): 0; Plant response rating, S. Flatsedge [1, 16]: 0; S. Flatsedge plant response rating [1, 17]: 3; Plant response rating, S. Flatsedge [1, 18]: 4; Plant response rating, Barnyardgrass [2, 16]: 0; Plant response rating, Barnyardgrass [2, 19]: 0; Plant response rating, Barnyardgrass [2, 18]: 0; Plant response rating, Ducksalad [3, 16]: 0; Plant response rating, Ducksalad [3, 19]: 0; Plant response rating, Ducksalad [3, 18]: 0; Plant response rating, Cocklebur ([4]; Rate 62 g/ha): 4; Cocklebur plant response rating ([4]; Rate 62 g/ha): 0; Plant response rating, Cocklebur ([4]; Rate 125 g/ha): 7; Cocklebur plant response rating ([4]; Rate 125 g/ha): 0; Plant response rating, Cocklebur ([4]; Rate 250 g/ha): 8; Plant response rating, Corn (corn (Zea mays); Rate 62 g/ha, Postemergence): 1; Corn plant response rating (corn (Zea mays); Rate 62 g/ha): 0; Plant response rating, Corn (corn (Zea mays); Rate 125 g/ha, Postemergence): 1; Corn plant response rating (corn (Zea mays); Rate 125 g/ha): 0; Plant response rating, Corn (corn (Zea mays); Rate 250 g/ha, Postemergence): 1; Plant response rating, Corn (corn (Zea mays); [20]): 0; Plant response rating, B. signalgrass ([5]; Rate 62 g/ha, Postemergence): 1; B. signalgrass plant response rating ([5]; Rate 62 g/ha): 0; Plant response rating, B. signalgrass ([5]; Rate 125 g/ha, Postemergence): 1; B. signalgrass plant response rating ([5]; Rate 125 g/ha): 0; Plant response rating, B. signalgrass ([5]; Rate 250 g/ha, Postemergence): 1; Plant response rating, B. signalgrass ([5]; Rate 250 g/ha, Postemergence as printed in head r139 (second section for compounds 26-50)): 1; Plant response rating, Morningglory ([6]; Rate 62 g/ha, Postemergence): 1; Morningglory plant response rating ([6]; Rate 62 g/ha, Preemergence): 0; Morningglory plant response rating ([6]; Rate 125 g/ha, Postemergence): 1; Morningglory plant response rating ([6]; Rate 125 g/ha, Preemergence): 0; Plant response rating, Morningglory ([6]; Rate 250 g/ha, Postemergence): 1; Plant response rating, Morningglory [6, 20]: 0; Plant response rating, Rape (rape (Brassica napus); Rate 62 g/ha, Postemergence): 3; Rape plant response rating (rape (Brassica napus); Rate 62 g/ha, Preemergence): 0; Rape plant response rating (rape (Brassica napus); Rate 125 g/ha, Postemergence): 3; Rape plant response rating (rape (Brassica napus); Rate 125 g/ha, Preemergence): 0; Plant response rating, Rape (rape (Brassica napus); Rate 250 g/ha, Postemergence): 6; Plant response rating, Rape (rape (Brassica napus); [20]): 0; Wheat plant response rating ([7]; Rate 62 g/ha, Postemergence): 1; Wheat plant response rating ([7]; Rate 62 g/ha, Preemergence): 0; Wheat plant response rating ([7]; Rate 125 g/ha, Postemergence): 1; Plant response rating, Wheat ([7]; Rate 125 g/ha, Preemergence): 0; Plant response rating, Wheat ([7]; Rate 250 g/ha, Postemergence): 1; Plant response rating, Wheat [7, 20]: 0; Plant response rating, Giant foxtail ([8]; Rate 62 g/ha, Postemergence): 0; Giant foxtail plant response rating ([8]; Rate 62 g/ha, Preemergence): 0; Giant foxtail plant response rating ([8]; Rate 125 g/ha, Postemergence): 1; Giant foxtail plant response rating ([8]; Rate 125 g/ha, Preemergence): 1; Plant response rating, Giant foxtail ([8]; Rate 250 g/ha, Postemergence): 0; Plant response rating, Giant foxtail [8, 20]: 1; Plant response rating, Soybean (soybean (Glycine max); Rate 62 g/ha, Postemergence): 1; Soybean plant response rating (soybean (Glycine max); Rate 62 g/ha, Preemergence): 0; Soybean plant response rating (soybean (Glycine max); Rate 125 g/ha, Postemergence): 1; Plant response rating, Soybean (soybean (Glycine max); Rate 125 g/ha, Preemergence): 0; Plant response rating, Soybean (soybean (Glycine max); Rate 250 g/ha, Postemergence): 1; Plant response rating, Soybean (soybean (Glycine max); [20]): 0; Wild oats plant response rating (wild oat (Avena fatua); Rate 62 g/ha, Postemergence): 1; Wild oats plant response rating (wild oat (Avena fatua); Rate 62 g/ha, Preemergence): 0; Wild oats plant response rating (wild oat (Avena fatua); Rate 125 g/ha, Postemergence): 1; Plant response rating, Wild oats (wild oat (Avena fatua); Rate 125 g/ha, Preemergence): 0; Plant response rating, Wild oats (wild oat (Avena fatua); Rate 250 g/ha, Postemergence): 1; Plant response rating, Wild oats (wild oat (Avena fatua); [20]): 0; Plant response rating, Blackgrass ([9]; Rate 62 g/ha, Postemergence): 0; Blackgrass plant response rating ([9]; Rate 62 g/ha): 0; Plant response rating, Blackgrass ([9]; Rate 125 g/ha, Postemergence): 0; Blackgrass plant response rating ([9]; Rate 125 g/ha): 0; Plant response rating, Blackgrass ([9]; Rate 250 g/ha, Postemergence): 0; Plant response rating, Blackgrass [9, 20]: 0; Plant response rating, Bedstraw ([10]; Rate 62 g/ha, Postemergence): 7; Bedstraw plant response rating ([10]; Rate 62 g/ha): 0; Plant response rating, Bedstraw ([10]; Rate 125 g/ha, Postemergence): 7; Bedstraw plant response rating ([10]; Rate 125 g/ha): 1; Plant response rating, Bedstraw [10, 20]: 2; Plant response rating, Redroot pigweed ([11]; Rate 62 g/ha, Postemergence): 2; Redroot pigweed plant response rating ([11]; Rate 62 g/ha, Preemergence): 0; Redroot pigweed plant response rating ([11]; Rate 125 g/ha, Postemergence): 4; Redroot pigweed plant response rating ([11]; Rate 125 g/ha, Preemergence): 0; Plant response rating, Redroot pigweed ([11]; Rate 250 g/ha, Postemergence): 5; Plant response rating, Redroot pigweed [11, 20]: 0; Plant response rating, Crabgrass ([12]; Rate 62 g/ha, Postemergence): 0; Crabgrass plant response rating ([12]; Rate 62 g/ha): 0; Plant response rating, Crabgrass ([12]; Rate 125 g/ha, Postemergence): 0; Crabgrass plant response rating ([12]; Rate 125 g/ha): 0; Plant response rating, Crabgrass ([12]; Rate 250 g/ha, Postemergence): 1; Plant response rating, Crabgrass [12, 20]: 0; Plant response rating, Velvetleaf ([13]; Rate 62 g/ha, Postemergence): 1; Velvetleaf plant response rating ([13]; Rate 62 g/ha, Preemergence): 0; Velvetleaf plant response rating ([13]; Rate 125 g/ha, Postemergence): 1; Plant response rating, Velvetleaf ([13]; Rate 125 g/ha, Preemergence): 0; Plant response rating, Velvetleaf ([13]; Rate 250 g/ha, Postemergence): 2; Plant response rating, Velvetleaf [13, 20]: 0; Plant response rating, Sugarbeets ([14]; Rate 62 g/ha, Postemergence): 9; Sugarbeets plant response rating ([14]; Rate 62 g/ha, Preemergence): 0; Sugarbeets plant response rating ([14]; Rate 125 g/ha, Postemergence): 9; Plant response rating, Sugarbeets ([14]; Rate 125 g/ha, Preemergence): 0; Plant response rating, Sugarbeets ([14]; Rate 250 g/ha, Postemergence): 9; Plant response rating, Sugarbeets [14, 20]: 0; Plant response rating, Nutsedge ([15]; Rate 62 g/ha, Postemergence): 0; Nutsedge plant response rating ([15]; Rate 62 g/ha, Preemergence): 0; Nutsedge plant response rating ([15]; Rate 125 g/ha, Postemergence): 0; Nutsedge plant response rating ([15]; Rate 125 g/ha, Preemergence): 0; Plant response rating, Nutsedge ([15]; Rate 250 g/ha, Postemergence): 0; Plant response rating, Nutsedge [15, 20]: 0

Reference: patent US6525001B1, “Substituted pyrimidine and pyridine herbicides” (Mid-American Commercialization Corporation, priority 1997, dated 2003)
